Reference: patent publication US12157730B2, “Heteroaryl derivative, method for producing same, and pharmaceutical composition comprising same as effective component” (VORONOI INC., priority 2019, dated 2024)

Target: T1, Ba/F3 cell EGFR Exon20 ins NPH (Homo sapiens, UniProt P00533, INS773NPH)
T1 construct: expressed in transfected cells; host or cells: Ba/F3
Experiment: Ba/F3 cell proliferation suppression, EGFR Exon20 ins NPH
Type: cell-based
Settings: GI50 class; Ba/F3 cell line with NPH inserted at Exon20 of EGFR; 72 hours
Outline: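 Growth suppression determined as GI50 following 72 h exposure across 12 concentrations up to 50 um, with viability by luminescent ATP assay (CellTiter-Glo).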

Structure (SMILES) | Ba/F3 (NPH) Activity
C=CC(=O)Nc1cc(Nc2cc(N3OCC[C@@H]3c3cccc(Cl)c3C)ncn2)c(OC)cc1N1CCN(CC)CC1 [compound 585, N-(5-((6-((R)-3-(3-chloro-2-methylphenyl)isoxazolidine-2-yl)pyrimidine-4-yl)amino)-2-(4-ethylpiperazine-1-yl)-4-methoxyphenyl) acrylamide] | A (GI50 < 50 nM)
C=CC(=O)Nc1cc(Nc2cc(N3OCC[C@@H]3c3ccc(Cl)c(Cl)c3)ncn2)c(OC)cc1N1C[C@H]2C[C@@H]1CN2C [compound 674, N-(5-((6-((R)-3-(3,4-dichlorophenyl)isoxazolidine-2-yl)pyrimidine-4-yl)amino)-4-methoxy-2-((1R,4R)-5-methyl-2,5-diazabicyclo[2.2.1]heptane-2-yl)phenyl) acrylamide] | A (GI50 < 50 nM)
C=CC(=O)Nc1cc(Nc2cc(N3OCC[C@@H]3Cc3cccc(N(C)C)c3)ncn2)c(OC)cc1N1CCC(N2C[C@@H]3C[C@H]2CO3)CC1 [compound 1048, N-(2-(4-((1S,4S)-2-oxa-5-azabicyclo [2.2.1]heptane-5-yl)piperidine-1-yl)-5-((6-((S)-3-(3-(dimethylamino)benzyl)isoxazolidine-2-yl)pyrimidine-4-yl)amino)-4-methoxyphenyl) acrylamide] | B (50 nM ≤ GI50 < 500 nM)
C=CC(=O)Nc1cc(Nc2cc(N3OCC[C@@H]3c3cccc4ccccc34)ncn2)c(OC)cc1N1CC[C@@H](N(C)C)C1 [compound 443, N-(2-((R)-3-(dimethylamino)pyrolidine-1-yl)-4-methoxy-5-((6-((R)-3-(naphthalene-1-yl)isoxazolidine-2-yl)pyrimidine-4-yl)amino)phenyl) acrylamide] | A (GI50 < 50 nM)

Results, then the molecule that gave them:

Ba/F3 (NPH) Activity | Structure (SMILES)
A (GI50 < 50 nM) | C=CC(=O)Nc1cc(Nc2cc(N3OCC[C@@H]3c3ccc(Cl)c(F)c3)ncn2)c(OC)cc1N1CCC(N2CC[C@@H](N(C)C)C2)CC1 [compound 800, N-(5-((6-((R)-3-(4-chloro-3-fluorophenyl)isoxazolidine-2-yl)pyrimidine-4-yl)amino)-2-(4-((R)-3-(dimethylamino)pyrolidine-1-yl)piperidine-1-yl)-4-methoxyphenyl) acrylamide]
A (GI50 < 50 nM) | C=CC(=O)Nc1cc(Nc2cc(N3OCC[C@@H]3c3cccc(Cl)c3Cl)ncn2)c(OC)cc1N1CCOCC1 [compound 517, N-(5-((6-((R)-3-(2,3-dichlorophenyl)isoxazolidine-2-yl)pyrimidine-4-yl)amino)-4-methoxy-2-morpholinophenyl) acrylamide]
A (GI50 < 50 nM) | C=CC(=O)Nc1cc(Nc2cc(N3OCC[C@@H]3Cc3cccc(F)c3Cl)ncn2)c(OC)cc1N1CCC(N2CCN(C3CC3)[C@H](C)C2)CC1 [compound 1036, N-(5-((6-((S)-3-(2-chloro-3-fluorobenzyl)isoxazolidine-2-yl)pyrimidine-4-yl)amino)-2-(4-((R)-4-cyclopropyl-3-methylpiperazine-1-yl)piperidine-1-yl)-4-methoxyphenyl) acrylamide]
B (50 nM ≤ GI50 < 500 nM) | C=CC(=O)Nc1cc(Nc2cc(N3OCC[C@@H]3c3cccc(Cl)c3Cl)ncn2)c(OC)cc1N1CCC(N2CCN(C3CCN(C)CC3)CC2)CC1 [compound 611]
A (GI50 < 50 nM) | C=CCN1CCN(C2CCN(c3cc(OC)c(Nc4cc(N5OCC[C@@H]5c5cc(F)cc(Cl)c5)ncn4)cc3NC(=O)C=C)CC2)CC1 [Example 214, N-(2-(4-(4-allylpiperazine-1-yl)piperidine-1-yl)-5-((6-((R)-3-(3-chloro-5-fluorophenyl)isoxazolidine-2-yl)pyrimidine-4-yl)amino)-4-methoxyphenyl) acrylamide]
A (GI50 < 50 nM) | C=CC(=O)Nc1cc(Nc2cc(N3OCC[C@@H]3c3ccc(Cl)cc3)ncn2)c(OC)cc1N1CC[C@@H](N2CCOCC2)C1 [compound 733, N-(5-((6-((R)-3-(4-chlorophenyl)isoxazolidine-2-yl)pyrimidine-4-yl)amino)-4-methoxy-2-((R)-3-morpholinopyrolidine-1-yl)phenyl)acrylamide]
